“Also recorded” adds a separate entry of the source. A value given as a limit tells only on which side of the number the result lay.

We go through 2 compounds from patent US4670440A (priority 1985, dated 1987).

A short description of data set [1]: Absorption by the organism / through the intestines. It is filed as in vivo. The following applies: compound according to the invention; no test data shown.
For the next data set, the system named is Staphylococcus aureus. As to the kind of experiment: Minimal inhibiting concentration (MIC), agar-diffusion technique, series diluting method. The following applies: norfloxacin dissolved in dimethyl-sulphoxide, THA salt in water.
In another data set the test system is E. Coli. The data set is described as above. In kind it is cell-based. The following applies: in vitro; norfloxacin dissolved in dimethyl-sulphoxide, THA salt in water; listed as Norfloxacin-THA-salt.
In the next data set the test system is Pseudomonas Aeruginosa. The description is as above. As to conditions: norfloxacin dissolved in dimethyl-sulphoxide, THA salt in water.
Data set [2] is described as follows: Watersolubility (literature / general statement). It is filed as physicochemical. As to conditions: water, new compound of the Formula I.
In data set [3] the test system is Pseudomonas aeruginosa and gram positive and gram negative bacteria. The following applies: Antimicrobial Agents and Chemotherapy 1980, 17, 103-108; cited from earlier work.
For data set [4] the following is noted: because of the low solubility; cited from earlier work.
[5] abbreviates: in vitro, listed as Norfloxacin-THA-salt.

As for `CCn1cc(C(=O)O)c(=O)c2cc(F)c(N3CCNCC3)cc21` [Compound of the Formula I, N,N,N-trimethyl-2-hydroxyethyl-ammonium-[1-ethyl-6-fluoro-4-oxo-7-(1-piperazinyl)-1,4-dihydro-quinoline-3-carboxylate]], the “absorption (in words)” value in data set [1] is “better absorption; also recorded: quick absorption; also recorded: excellent absorption”. In addition, the biological utilization result in data set [1] is recorded as “good biological utilization”. Moreover, the MIC value in the data set with Staphylococcus aureus (setting [5]) was 0.25 µg/mL; in the data set on E. Coli it was 0.05 to 0.25 µg/mL; in the data set on Pseudomonas Aeruginosa (setting [5]), 0.25 to 0.5 µg/mL. In data set [2], the solubility is greater than 1000 mg/mL.

Regarding `CCn1cc(C(=O)O)c(=O)c2cc(F)c(N3CCNCC3)cc21` [Norfloxacin, 1-ethyl-4-oxo-6-fluoro-7-(1-piperazinyl)-1,4-dihydro-quinoline-3-carboxylic acid, reference compound], the “activity in the therapy of urethral infections” value in data set [3] was “good activity”. Further, the MIC lay in the range of 0.25 to 0.5 µg/mL in the data set with Staphylococcus aureus (Staphylococcus aureus, read-out: MIC value, in vitro) and 0.5 to 0.75 µg/mL in the data set with Pseudomonas Aeruginosa (Pseudomonas aeruginosa, read-out: MIC value, in vitro). Moreover, in data set [4], the “material absorbed going through the intestines” value is recorded as “about 40%”.

As usually defined, the solubility is the dissolved amount per volume that the medium holds. A high value points to much dissolved substance. In general, MIC refers to the least concentration at which growth counts as inhibited.
